Values of other authors as cited in US10568966B2, “Formulation for topical wound treatment” (AHMET KILIC, priority 2014, dated 2020).

Tests used:
[1] = CLP-Regulation (EC) No 1272/2008

Row | Compound | GHS Classification [1] | LD50 Acute oral (Rat) [mg/kg]
1 | Cocamidopropyl Betaine [CRODATERIC ™ CAB 30-LQ-(RB)] | Eye Irrit. 2; H319 | 
2 | C=CCCCCCCCCC(=O)NCCC[N+](C)(C)CC(=O)[O-] [Rewoteric ® AM B U 185, Undecylenamidopropyl Betaine] |  | >2.000
3 | Lauramidopropyl betaine [CRODATERIC ™ CAB 30-LQ-(TH)] |  | >4.900
